Test results reported in PMC8496750, “Identification of the organic anion transporting polypeptides responsible for the hepatic uptake of the major metabolite of epyrifenacil, S‐3100‐CA, in mice” (Pharmacology Research & Perspectives, 2021).

Tests used:
various OATPs = assay: Inhibition of S‐3100‐CA uptake by OATP inhibitors, various OATPs; type: in vitro ADME, mouse, human; details: inhibitor at 100 μM
Method: 293FT cells were purchased from Thermo Fisher Scientific, Inc.. The cells were grown in Dulbecco's modified Eagle medium (supplemented with 4.5 g/L glucose and 2 mM L‐glutamine) at 37°C, 5% CO2, and 95% humidity. The cells were passaged 3 times per week by harvesting cells using trypsin and plating at a density of 1.0 × 10^4 cells/cm^2 in a 10 cm cell culture plate for maintenance culture. The 293FT cells were detached using trypsin and re‐seeded at a density of 2.5 × 10^4 cells/cm^2 in BioCoat™ Collagen I 6‐well plates (Corning Inc.) for transfection and then treated with 1.2 μg of plasmid vector and 3.2 μl of Lipofectamine™ 2000 Transfection Reagent (Thermo Fisher Scientific, Inc.) according to the manufacturer's instructions. After a 3‐h treatment, the transfection medium was replaced with a fresh cell culture medium and incubated at 37°C with 95% humidity and 5% CO2 until ready for the assay.
Transport experiments were conducted approximately 24 h post‐transfection. […] From the lysate, 1.0 ml was transferred to a vial containing 10 ml of Emulsifier Scintillator Plus to measure the radioactivity in the LSC. The protein concentration of the cell lysate was also measured using a Pierce™ BCA Protein Assay Kit (Thermo Fisher Scientific, Inc.), which was used to normalize, according to the cell number, the radioactivity in the cell lysate extract. […]

mouse Oatp1a1 = molecular target: T1, mouse Oatp1a1 (Mus musculus, UniProt Q9QXZ6); assay: in vitro; details: 293FT cells transiently transfected with mouse Oatp1a1, probe radiolabeled S‐3100‐CA
T1 sequence (Q9QXZ6 1-670): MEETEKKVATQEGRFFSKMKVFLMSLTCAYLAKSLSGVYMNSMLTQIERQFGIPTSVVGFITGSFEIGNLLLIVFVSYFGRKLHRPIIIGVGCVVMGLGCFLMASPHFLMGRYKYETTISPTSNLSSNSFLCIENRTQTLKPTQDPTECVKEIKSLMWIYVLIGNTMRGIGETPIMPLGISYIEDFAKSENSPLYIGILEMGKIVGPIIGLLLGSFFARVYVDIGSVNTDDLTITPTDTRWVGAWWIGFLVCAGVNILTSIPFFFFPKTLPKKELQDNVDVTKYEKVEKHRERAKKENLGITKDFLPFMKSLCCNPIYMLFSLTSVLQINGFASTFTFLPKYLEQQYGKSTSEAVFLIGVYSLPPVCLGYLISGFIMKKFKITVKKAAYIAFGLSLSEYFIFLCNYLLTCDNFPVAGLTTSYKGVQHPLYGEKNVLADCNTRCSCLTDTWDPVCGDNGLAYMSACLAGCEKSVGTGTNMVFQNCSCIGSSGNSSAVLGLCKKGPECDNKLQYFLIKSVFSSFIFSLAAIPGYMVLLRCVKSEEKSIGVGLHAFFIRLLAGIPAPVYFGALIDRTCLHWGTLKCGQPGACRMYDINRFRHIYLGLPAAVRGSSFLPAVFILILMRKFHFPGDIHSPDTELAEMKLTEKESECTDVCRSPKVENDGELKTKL
Method: (§1) Transport experiments were conducted approximately 24 h post‐transfection. The experiments were initiated by aspirating culture medium and addition of pre‐warmed radiolabeled substrate solution (final 1.0% of acetonitrile or 0.9% of ethanol in phosphate‐buffered saline (PBS[−])) to each well. After a 10‐min incubation, cells were washed twice with 1 ml of ice‐cold PBS(−) and lysed with 700 μl of 1.0 M NaOH for 3 h or more at room temperature. The lysate was transferred to a 1.5‐ml tube, and neutralized with 350 μl of 2.0 M HCl and 350 μl of 2.0% sodium dodecyl sulfate (SDS) solution. From the lysate, 1.0 ml was transferred to a vial containing 10 ml of Emulsifier Scintillator Plus to measure the radioactivity in the LSC. The protein concentration of the cell lysate was also measured using a Pierce™ BCA Protein Assay Kit (Thermo Fisher Scientific, Inc.), which was used to normalize, according to the cell number, the radioactivity in the cell lysate extract. The protein assay was performed in duplicate. Each sample type was assayed in triplicate wells, and each run was performed twice. […] Each sample type was assayed in triplicate wells.

mouse Oatp1a4 = molecular target: T2, mouse Oatp1a4 (Mus musculus, UniProt Q9EP96); assay: in vitro; details: 293FT cells transiently transfected with mouse Oatp1a4, probe radiolabeled S‐3100‐CA
T2 sequence (Q9EP96 1-670): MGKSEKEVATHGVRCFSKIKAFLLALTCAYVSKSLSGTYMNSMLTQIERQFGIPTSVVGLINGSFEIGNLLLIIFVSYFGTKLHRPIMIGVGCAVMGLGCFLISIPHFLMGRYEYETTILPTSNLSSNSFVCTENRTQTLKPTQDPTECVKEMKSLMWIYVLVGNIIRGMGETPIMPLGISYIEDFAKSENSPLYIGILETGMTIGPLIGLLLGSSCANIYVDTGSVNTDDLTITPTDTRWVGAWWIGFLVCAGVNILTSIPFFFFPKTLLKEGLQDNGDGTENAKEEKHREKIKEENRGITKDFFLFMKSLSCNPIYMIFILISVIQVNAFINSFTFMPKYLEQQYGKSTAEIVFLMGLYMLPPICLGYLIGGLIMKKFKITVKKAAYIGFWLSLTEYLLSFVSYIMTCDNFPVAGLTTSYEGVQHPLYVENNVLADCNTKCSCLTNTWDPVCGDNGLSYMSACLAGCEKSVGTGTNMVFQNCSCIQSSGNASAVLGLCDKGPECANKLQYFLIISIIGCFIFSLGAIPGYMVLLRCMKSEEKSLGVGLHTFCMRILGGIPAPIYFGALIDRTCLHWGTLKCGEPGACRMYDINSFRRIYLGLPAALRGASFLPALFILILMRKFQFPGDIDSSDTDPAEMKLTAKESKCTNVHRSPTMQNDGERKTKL
Method: as §1

**Q.** With `CO[C@H]1/C=C/O[C@@]2(C)Oc3c(C)c(O)c4c(O)c(cc(O)c4c3C2=O)NC(=O)/C(C)=C\C=C\[C@H](C)[C@H](O)[C@@H](C)[C@@H](O)[C@@H](C)[C@H](OC(C)=O)[C@@H]1C` [RSV, rifamycin SV] as the molecule, how does the “Inhibition of S‐3100‐CA uptake (in words)” value (various OATPs) read?
**A.** Its value is “inhibited uptake via all OATPs other than human OATP2B1”.

**Q.** What about the inhibition at 10 min, 10 µM (mouse Oatp1a1) of the same molecule?
**A.** Its inhibition at 10 min, 10 µM is over 50%.

**Q.** What about the inhibition at 10 min, 10 µM (mouse Oatp1a4) of the same molecule?
**A.** The inhibition at 10 min, 10 µM was over 50%.
